The target in the experiment is T1, Human PD-L1/PD-1 (Homo sapiens, UniProt Q9NZQ7).
T1 construct: TVMV protease cleavage site (C); made in house; host or cells: HEK293T cells
Nature of the experiment: HTRF Human PD-L1/PD-1 binding assay (PD-1-Ig/PD-L1-His). Particulars: PD-L1-His 10 nM, PD-1-Ig 20 nM; class symbol; read-out: HTRF Human PD-L1/PD-1 Binding Assay IC50 Range. The gist of the method: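 HTRF competition using HEK293T-expressed human PD-1(25-167)-Ig at 20 nM and PD-L1(18-239)-His at 10 nM, compound incubated first with PD-L1 for 15 min, then with PD-1 for 15 min. Signal read as 665/620 nm ratio 30 min after adding Eu anti-Ig and APC anti-His antibodies.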
Background: Time-resolved FRET reads energy transfer from a long-lived donor to a nearby acceptor.

Where a SMILES comes first, the peptide text is derived from it. Bridges are numbered along the chain shown (N, C = ends). [ ]: non-standard residue; d: D form. ξ: configuration not given here. Trp(1-CH2COOH) = N[C@@H](Cc1cn(CC(=O)O)c2ccccc12)C(=O)O; Trp(βS-Me) = C[C@@H](c1c[nH]c2ccccc12)[C@H](N)C(=O)O; Phe(3,4,5-F3) = N[C@@H](Cc1cc(F)c(F)c(F)c1)C(=O)O; NMePhe(4-F) = CN[C@@H](Cc1ccc(F)cc1)C(=O)O; d(cisHyp) = O=C(O)[C@H]1C[C@@H](O)CN1; Bta = N[C@@H](Cc1csc2ccccc12)C(=O)O; Hyp = O=C(O)[C@@H]1C[C@@H](O)CN1; NMeF = CN[C@@H](Cc1ccccc1)C(=O)O; dHyp = O=C(O)[C@H]1C[C@H](O)CN1; NMeNle = CCCC[C@H](NC)C(=O)O; dPip = O=C(O)[C@H]1CCCCN1; hSer = N[C@@H](CCO)C(=O)O; NMeA = CN[C@@H](C)C(=O)O; Orn = NCCC[C@H](N)C(=O)O; Dab = NCC[C@H](N)C(=O)O; Dap = NC[C@H](N)C(=O)O; ξPip = O=C(O)C1CCCCN1; ξC = NC(CS)C(=O)O; Sar = CNCC(=O)O

T1 sequence (Q9NZQ7 with tags, fused parts or gaps): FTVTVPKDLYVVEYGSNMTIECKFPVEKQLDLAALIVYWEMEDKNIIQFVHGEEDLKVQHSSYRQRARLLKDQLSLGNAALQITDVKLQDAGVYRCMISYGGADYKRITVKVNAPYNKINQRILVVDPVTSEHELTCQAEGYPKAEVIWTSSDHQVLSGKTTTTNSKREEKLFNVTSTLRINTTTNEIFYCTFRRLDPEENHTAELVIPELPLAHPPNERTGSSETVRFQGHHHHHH

As to `CCCC[C@H]1C(=O)N(C)CC(=O)N[C@@H](CC(=O)O)C(=O)N[C@@H](C(C)C)C(=O)N(C)[C@@H](Cc2ccccc2)C(=O)N[C@@H](Cc2ccc(O)cc2)C(=O)N(C)CC(=O)NC(C)(Cc2c[nH]c3ccccc23)C(=O)N[C@@H](Cc2ccc(O)cc2)C(=O)N[C@@H](CC(C)C)C(=O)N[C@H](C(=O)NCC(N)=O)CSCC(=O)N[C@@H](Cc2ccccc2)C(=O)N(C)[C@@H](Cc2ccccc2)C(=O)N1C` (single isomer, unassigned) [Example 3640-B], the IC50 was in the range of 100 to 990 nM.

For `CCCC[C@H]1C(=O)N[C@@H](CC(N)=O)C(=O)N2CCC[C@H]2C(=O)N[C@@H](CO)C(=O)N[C@@H](CCO)C(=O)N2C[C@H](O)C[C@H]2C(=O)N[C@@H](Cc2c[nH]c3ccccc23)C(=O)N[C@@H](CN)C(=O)N[C@@H](Cc2c[nH]c3ccccc23)C(=O)N(C)[C@@H](C)C(=O)N(C)CC(=O)N[C@@H](CCCNC(=N)N)C(=O)NC(C(=O)NCC(N)=O)CSCC(=O)N[C@@H](Cc2ccc(O)cc2)C(=O)N1C` (stereo partly drawn) [Example 10205] ({CH2CO}-Y[NMeNle]NPS[hSer][Hyp]W[Dap]W[NMeA][Sar]R[ξC]G-NH2; thioether N-14), the IC50 is 1000 to 10000 nM.

Turning to `CCCC[C@H]1C(=O)N(C)[C@@H](CCCC)C(=O)N[C@@H](CCC(=O)O)C(=O)N[C@H](C(=O)NCC(N)=O)CSCC(=O)N[C@@H](Cc2ccc(O)cc2)C(=O)N(C)[C@@H](C)C(=O)N[C@@H](CC(=O)O)C(=O)N2CCC[C@H]2C(=O)N[C@@H](Cc2cnc[nH]2)C(=O)N[C@@H](CCC(=O)O)C(=O)N2C[C@H](O)C[C@H]2C(=O)N[C@@H](Cc2c[nH]c3ccccc23)C(=O)N[C@@H](CO)C(=O)N[C@@H](Cc2c[nH]c3ccccc23)C(=O)N1C` [Example 5230] ({CH2CO}-Y[NMeA]DPHE[Hyp]WSW[NMeNle][NMeNle]ECG-NH2; thioether N-14), the IC50 was in the range of 1 to 9.9 nM. Take `CCCC[C@H]1C(=O)N(C)[C@@H](CCCC)C(=O)N[C@@H](CO)C(=O)N[C@H](C(=O)NCC(N)=O)CSCC(=O)N[C@@H](Cc2ccc(OC)cc2)C(=O)N(C)[C@@H](C)C(=O)N[C@@H](CC(N)=O)C(=O)N2CCC[C@H]2C(=O)N[C@@H](Cc2c[nH]cn2)C(=O)N[C@@H](CCC(N)=O)C(=O)N2C[C@H](O)C[C@H]2C(=O)N[C@@H](Cc2c[nH]c3ccccc23)C(=O)N[C@@H](CO)C(=O)N[C@@H](Cc2cn(CC(=O)O)c3ccccc23)C(=O)N1C` [Example 7143] ({CH2CO}-Y(Me)[NMeA]NPHQ[Hyp]WS[Trp(1-CH2COOH)][NMeNle][NMeNle]SCG-NH2; thioether N-14): the IC50 fell in the range of 1 to 9.9 nM. Consider `CCCC[C@H]1C(=O)N(C)[C@@H](CCCC)C(=O)N[C@@H](CCC(=O)O)C(=O)N[C@H](C(=O)NCC(N)=O)CSCC(=O)N[C@@H](Cc2ccc(O)cc2)C(=O)N(C)[C@@H](C)C(=O)N[C@@H](CC(=O)O)C(=O)N2CCC[C@H]2C(=O)N[C@@H](Cc2c[nH]cn2)C(=O)N[C@@H](CCC(N)=O)C(=O)N2C[C@H](O)C[C@H]2C(=O)N[C@@H]([C@@H](C)c2c[nH]c3ccccc23)C(=O)N[C@@H](CO)C(=O)N[C@@H](Cc2c[nH]c3ccccc23)C(=O)N1C` [Example 10552] ({CH2CO}-Y[NMeA]DPHQ[Hyp][Trp(βS-Me)]SW[NMeNle][NMeNle]ECG-NH2; thioether N-14), for which the IC50 fell in the range of 1 to 9.9 nM. As for `CCCC[C@H]1C(=O)N2C[C@@H](O)C[C@@H]2C(=O)N[C@@H](CC(=O)O)C(=O)N[C@@H](C(C)C)C(=O)N(C)[C@@H](Cc2ccccc2)C(=O)N[C@@H](CCC(=O)O)C(=O)N2CCCC[C@@H]2C(=O)N[C@@H](Cc2c[nH]c3ccccc23)C(=O)N[C@@H](Cc2ccc(O)cc2)C(=O)N[C@@H](CC(N)=O)C(=O)N[C@H](C(=O)NCC(N)=O)CSCC(=O)N[C@@H](Cc2cc(F)c(F)c(F)c2)C(=O)N(C)[C@@H](Cc2ccc(F)cc2)C(=O)N1C` [Example 10558] ({CH2CO}-[Phe(3,4,5-F3)][NMePhe(4-F)][NMeNle][dHyp]DV[NMeF]E[dPip]WYNCG-NH2; thioether N-13), the figure is 1 to 9.9 nM; as for `CCCC[C@H]1C(=O)N(C)[C@@H](CCCC)C(=O)N[C@@H](CCC(=O)O)C(=O)N[C@H](C(=O)NCC(N)=O)CSCC(=O)N[C@@H](Cc2ccc(OC)cc2)C(=O)N(C)[C@@H](C)C(=O)N[C@@H](CCN)C(=O)N2CCC[C@H]2C(=O)N[C@@H](Cc2cnc[nH]2)C(=O)N[C@@H](CCCCN)C(=O)N2C[C@H](O)C[C@H]2C(=O)N[C@@H](Cc2c[nH]c3ccccc23)C(=O)N[C@@H](CC(=O)O)C(=O)N[C@@H](Cc2c[nH]c3ccccc23)C(=O)N1C` [Example 7126] ({CH2CO}-Y(Me)[NMeA][Dab]PHK[Hyp]WDW[NMeNle][NMeNle]ECG-NH2; thioether N-14), 1000 to 10000 nM. Consider `CCCC[C@H]1C(=O)N(C)[C@@H](CCCC)C(=O)N[C@@H](CCCN)C(=O)N[C@H](C(=O)NCC(N)=O)CSCC(=O)N[C@@H](Cc2ccc(O)cc2)C(=O)N2CCCCC2C(=O)N[C@@H](CC(=O)O)C(=O)N2CCC[C@H]2C(=O)N[C@@H](CN)C(=O)N[C@@H](CCC(=O)O)C(=O)N2C[C@H](O)C[C@H]2C(=O)N[C@@H](Cc2c[nH]c3ccccc23)C(=O)N[C@@H](CCN)C(=O)N[C@@H](Cc2c[nH]c3ccccc23)C(=O)N1C` (stereo partly drawn) [Example 1528] ({CH2CO}-Y[ξPip]DP[Dap]E[Hyp]W[Dab]W[NMeNle][NMeNle][Orn]CG-NH2; thioether N-14), for which the IC50 fell in the range of 10 to 99.9 nM. As to `CCCC[C@H]1C(=O)N(C)[C@@H](CCCC)C(=O)N[C@@H](CCC(=O)O)C(=O)N[C@H](C(=O)NCC(N)=O)CSCC(=O)N[C@@H](Cc2ccc(O)cc2)C(=O)N(C)[C@@H](C)C(=O)N[C@@H](CC(=O)O)C(=O)N2CCC[C@H]2C(=O)N[C@@H](CN)C(=O)N[C@@H](CC(C)C)C(=O)N2C[C@H](O)C[C@H]2C(=O)N[C@@H](Cc2c[nH]c3ccccc23)C(=O)N[C@@H](CO)C(=O)N[C@@H](Cc2c[nH]c3ccccc23)C(=O)N1C` [Example 5164] ({CH2CO}-Y[NMeA]DP[Dap]L[Hyp]WSW[NMeNle][NMeNle]ECG-NH2; thioether N-14), the IC50 lay within 1 to 9.9 nM. Take `CCCC[C@H]1C(=O)N2CCC[C@@H]2C(=O)N[C@@H](CO)C(=O)N[C@@H](C(C)C)C(=O)N(C)[C@@H](Cc2ccccc2)C(=O)N[C@@H](CCC(=O)O)C(=O)N2CCCC[C@@H]2C(=O)N[C@@H](Cc2c[nH]c3ccccc23)C(=O)N[C@@H](Cc2ccc(O)cc2)C(=O)N[C@@H](CC(C)C)C(=O)N[C@H](C(=O)NCC(N)=O)CSCC(=O)N[C@@H](Cc2cc(F)c(F)c(F)c2)C(=O)N(C)[C@@H](Cc2ccc(F)cc2)C(=O)N1C` [Example 10587] ({CH2CO}-[Phe(3,4,5-F3)][NMePhe(4-F)][NMeNle][dP]SV[NMeF]E[dPip]WYLCG-NH2; thioether N-13): the IC50 is 1 to 9.9 nM.

Take `CCCC[C@H]1C(=O)N(C)[C@@H](CCCC)C(=O)N[C@@H](CCCNC(=N)N)C(=O)NC(C(=O)NCC(N)=O)CSCC(=O)N[C@@H](Cc2ccc(O)cc2)C(=O)N(C)[C@@H](C)C(=O)N[C@@H](CC(N)=O)C(=O)N2CCC[C@H]2C(=O)N[C@@H](CO)C(=O)N[C@@H](CO)C(=O)N2CCC[C@H]2C(=O)N[C@@H](Cc2c[nH]c3ccccc23)C(=O)N[C@@H](CO)C(=O)N[C@@H](Cc2csc3ccccc23)C(=O)N1C` (stereo partly drawn) [Example 10015] ({CH2CO}-Y[NMeA]NPSSPWS[Bta][NMeNle][NMeNle]R[ξC]G-NH2; thioether N-14): the IC50 lay in the range of 1 to 9.9 nM.

`CCCC[C@H]1C(=O)N2CCC[C@@H]2C(=O)N[C@@H](CC(=O)O)C(=O)N[C@@H](C(C)C)C(=O)N(C)[C@@H](Cc2ccccc2)C(=O)N[C@@H](Cc2ccc(O)cc2)C(=O)N2CCC[C@@H]2C(=O)N[C@@H]([C@@H](C)c2c[nH]c3ccccc23)C(=O)N[C@@H](Cc2ccc(O)cc2)C(=O)N[C@@H](CC(C)C)C(=O)N[C@H](C(=O)NCC(N)=O)CSCC(=O)N[C@@H](Cc2ccccc2)C(=O)N(C)[C@@H](Cc2ccccc2)C(=O)N1C` [Example 10535] ({CH2CO}-F[NMeF][NMeNle][dP]DV[NMeF]Y[dP][Trp(βS-Me)]YLCG-NH2; thioether N-13): the IC50 lay in the range of 1 to 9.9 nM.

Consider `CCCC[C@H]1C(=O)N2CCC[C@@H]2C(=O)N[C@@H](CO)C(=O)N[C@@H](C(C)C)C(=O)N(C)[C@@H](Cc2ccccc2)C(=O)N[C@@H](Cc2ccc(O)cc2)C(=O)N2CCC[C@@H]2C(=O)N[C@@H](Cc2c[nH]c3ccccc23)C(=O)N[C@@H](Cc2ccc(O)cc2)C(=O)N[C@@H](CC(C)C)C(=O)N[C@H](C(=O)NCC(N)=O)CSCC(=O)N[C@@H](Cc2ccccc2)C(=O)N(C)[C@@H](Cc2ccccc2)C(=O)N1C` [Example 10067] ({CH2CO}-F[NMeF][NMeNle][dP]SV[NMeF]Y[dP]WYLCG-NH2; thioether N-13), for which the IC50 lay in the range of 1 to 9.9 nM.

On to `CCCC[C@H]1C(=O)N2C[C@H](O)C[C@@H]2C(=O)N[C@@H](CC(=O)O)C(=O)N[C@@H](C(C)C)C(=O)N(C)[C@@H](Cc2ccccc2)C(=O)N[C@@H](CC(=O)O)C(=O)N2C[C@H](O)C[C@@H]2C(=O)N[C@@H](Cc2c[nH]c3ccccc23)C(=O)N[C@@H](Cc2ccc(O)cc2)C(=O)N[C@@H](CCCN)C(=O)N[C@H](C(=O)NCC(N)=O)CSCC(=O)N[C@@H](Cc2cc(F)c(F)c(F)c2)C(=O)N(C)[C@@H](Cc2ccccc2)C(=O)N1C` [Example 9346] ({CH2CO}-[Phe(3,4,5-F3)][NMeF][NMeNle][d(cisHyp)]DV[NMeF]D[d(cisHyp)]WY[Orn]CG-NH2; thioether N-13), for which the IC50 lay within 1 to 9.9 nM.

In the case of `CCCC[C@H]1C(=O)N(C)CC(=O)N[C@@H](CC(=O)O)C(=O)NC(C(C)c2ccccc2)C(=O)N(C)[C@@H](Cc2ccccc2)C(=O)N[C@@H](Cc2ccc(O)cc2)C(=O)N(C)CC(=O)N[C@@H](Cc2c[nH]c3ccccc23)C(=O)N[C@@H](Cc2ccc(O)cc2)C(=O)N[C@@H](CC(C)C)C(=O)N[C@H](C(=O)NCC(N)=O)CSCC(=O)N[C@@H](Cc2ccccc2)C(=O)N(C)[C@@H](Cc2ccccc2)C(=O)N1C` (single isomer, unassigned) [Example 3230-B], the IC50 lay within 100 to 990 nM.

The values above are taken from patent US10538555B2, “Macrocyclic inhibitors of the PD-1/PD-L1 and CD80(B7-1)/PD-L1 protein/protein interactions” (BRISTOL-MYERS SQUIBB COMPANY, priority 2014, dated 2020).
